The experiment concerns the target Rhesus PDE2A3 (Macaca mulatta, UniProt B3VTJ2). Description: PDE2 fluorescence polarization (IMAP FP) inhibition assay, rhesus enzyme. Type of experiment: biochemical, rhesus macaque. How it is done:
The activity of the compounds in accordance with the present invention as PDE2 inhibitors may be readily determined using a fluorescence polarization (FP) methodology (Huang, W., et al., J. Biomol Screen, 2002, 7: 215).
In a typical experiment the PDE2 inhibitory activity of the compounds of the present invention was determined in accordance with the following experimental method. Rhesus PDE2A3 was amplified from rhesus macaque brain cDNA (Biochain Institute, Hayward, Calif.) using primers based on human PDE2A sequence (accession NM_002599.3) where the forward primer containing a Kozak consensus was 5′-[…]-3′ and the reverse primer was 5′-[…]-3′. Amplification with Easy-A High-Fidelity PCR cloning enzyme (Stratagene, La Jolla, Calif.) was 95° C. for 2 minutes followed by thirty three cycles of 95° C. for 40 seconds, 52° C. for 30 seconds, and 72° C. for 2 minutes 48 seconds. Final extension was 72° C. for 7 minutes. The PCR product was TA cloned into pcDNA3.3-TOPO (Invitrogen, Carlsbad, Calif.) according to standard protocol. A consensus sequence was developed from multiple clones and then deposited into GenBank (EU812167). AD293 cells (Stratagene, La Jolla, Calif.) with 70-80% confluency were transiently transfected with rhesus PDE2A3/pcDNA3.3-TOPO using Lipofectamine 2000 according to manufacturer specifications (Invitrogen, Carlsbad, Calif.). Cells were harvested 48 hours post-transfection and lysed by sonication (setting 3, 10×5 sec pulses) in a buffer containing 20 mM HEPES pH 7.4, 1 mM EDTA and Complete Protease Inhibitor Cocktail Tablets (Roche, Indianapolis, Ind.). Lysate was collected by centrifugation at 75,000×g for 20 minutes at 4° C. and supernatant utilized for evaluation of PDE2 activity. The fluorescence polarization assay for cyclic nucleotide phosphodiesterases was performed using an IMAP® FP kit supplied by Molecular Devices, Sunnyvale, Calif. (product # R8139). […] Assays were performed at room temperature in 384-well microtiter plates with an incubation volume of 20.2 μL. Solutions of test compounds were prepared in DMSO and serially diluted with DMSO to yield 8 μL of each of 10 solutions differing by 3-fold in concentration, at 32 serial dilutions per plate. […] 0% of inhibition is determined by using DMSO (1% final concentrations).
A Labcyte Echo 555 (Labcyte, Sunnyvale, Calif.) is used to dispense 200 nL from each well of the titration plate to the 384 well assay plate. Ten microliters of a solution of enzyme (1/2000 final dilution from aliquots; sufficient to produce 20% substrate conversion) was added to the assay plate. Next 10 uL of a separate solution of the substrate FAM-labeled cAMP (50 nM final concentration product # R7506 from Molecular Devices) and the activator cGMP (1 uM final concentration), prepared in the assay buffer (10 mM Tris HCl, pH 7.2, 10 mM MgCl2, 0.05% NaN3 0.01% Tween-20, and 1 mM DTT) was added to the assay plate and shaken to mix. The reaction is allowed to proceed at room temperature for 60 minutes. A binding solution is then made from the kit components, comprised of 80% Solution A, 20% Solution B and binding reagent at a volume of 1/600 the total binding solution. The enzymatic reaction is stopped by addition of 60 μL of the binding solution to each well of the assay plates and the plates are sealed and shaken for 30 seconds. The plate was incubated at room temperature for at least one hour prior to determining the fluorescence polarization (FP). The parallel and perpendicular fluorescence of each well of the plate was measured using a Tecan Genios Pro plate reader (Tecan, Switzerland) or Perkin Elmer EnVision™ plate reader (Waltham, Mass.). Fluorescence polarization (mP) was calculated from the parallel (S) and perpendicular (P) fluorescence of each sample well and the analogous values for the median control well, containing only substrate (So and Po), using the following equation: Polarization (mP)=1000*(S/So−P/Po)/(S/So+P/Po).

Where [1] appears, read: Rhesus PDE2, Lab B, read-out: Rhesus PDE2 Ki (nM) - Lab B.
Where [2] appears, read: Rhesus PDE2, Lab A, read-out: Rhesus PDE2 Ki (nM) - Lab A.

Like-named read-outs stand apart in the source and are kept apart here. A value given as a limit tells only on which side of the number the result lay.

Chain of Rhesus PDE2A3 (B3VTJ2 1-941): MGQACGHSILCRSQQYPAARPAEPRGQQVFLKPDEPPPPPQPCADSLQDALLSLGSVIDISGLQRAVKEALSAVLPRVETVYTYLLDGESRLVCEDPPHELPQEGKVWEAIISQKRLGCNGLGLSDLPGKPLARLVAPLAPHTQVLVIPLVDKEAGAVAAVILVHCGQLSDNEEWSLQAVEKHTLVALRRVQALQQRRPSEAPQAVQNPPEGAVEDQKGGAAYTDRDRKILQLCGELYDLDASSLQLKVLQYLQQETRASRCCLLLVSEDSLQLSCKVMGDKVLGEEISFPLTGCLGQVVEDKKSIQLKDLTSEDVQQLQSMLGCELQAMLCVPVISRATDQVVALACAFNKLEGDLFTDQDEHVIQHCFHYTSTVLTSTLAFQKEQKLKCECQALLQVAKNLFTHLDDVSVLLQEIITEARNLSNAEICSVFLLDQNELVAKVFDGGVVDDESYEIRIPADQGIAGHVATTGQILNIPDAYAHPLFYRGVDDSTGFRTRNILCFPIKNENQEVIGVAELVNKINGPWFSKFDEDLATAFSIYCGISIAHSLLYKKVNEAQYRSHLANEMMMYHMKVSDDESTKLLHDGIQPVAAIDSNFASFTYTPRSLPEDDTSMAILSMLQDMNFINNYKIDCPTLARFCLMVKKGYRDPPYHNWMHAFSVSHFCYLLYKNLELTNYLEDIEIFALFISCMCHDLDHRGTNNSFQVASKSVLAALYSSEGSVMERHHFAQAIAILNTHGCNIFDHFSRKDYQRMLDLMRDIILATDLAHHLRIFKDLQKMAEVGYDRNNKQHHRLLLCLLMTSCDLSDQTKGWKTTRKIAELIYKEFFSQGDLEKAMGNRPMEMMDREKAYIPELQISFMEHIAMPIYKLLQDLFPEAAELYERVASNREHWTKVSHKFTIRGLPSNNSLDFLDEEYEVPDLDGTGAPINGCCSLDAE

Regarding `Cc1nc(C(=O)NC(c2ccc(C3(C)CC3)c(F)c2)C(C)(C)C)cc(=O)[nH]1` (single isomer, unassigned) [Example 710, (S)- or (R)-N-(1-(3-fluoro-4-(1-methylcyclopropyl)phenyl)-2,2-dimethylpropyl)-2-methyl-6-oxo-1,6-dihydropyrimidine-4-carboxamide], the Ki (as a rule, a measure of affinity in units of concentration, obtained from inhibition or displacement) under setting [1] was above 2970 nM. For `C[C@@H](NC(=O)c1cc(=O)[nH]c(-c2ncccn2)n1)c1cccc(C(F)(F)F)c1` [Example 80, 6-oxo-N-{(1R)-1-[3-(trifluoromethyl)phenyl]ethyl}-1,6-dihydro-2,2′-bipyrimidine-4-carboxamide], the Ki under setting [2] is 845 nM. `COc1cc(CN(C)C(=O)c2cc(=O)[nH]c(C)n2)cc(OC)c1OC` [Example 14, N,2-dimethyl-6-oxo-N-(3,4,5-trimethoxybenzyl)-1,6-dihydropyrimidine-4-carboxamide]: the Ki under setting [2] is 1860 nM. The same measure, in the same setting: the result for `C[C@@H](NC(=O)c1cc(=O)[nH]c(-c2ncccn2)n1)c1ccc(C(F)(F)F)c2ccccc12` [Example 102, 6-oxo-N-{(1R)-1-[4-(trifluoromethyl)naphthalen-1-yl]ethyl}-1,6-dihydro-2,2′-bipyrimidine-4-carboxamide] reads 5120 nM.

As to `CC(NC(=O)c1cc(=O)[nH]c(-c2ccccc2)n1)c1ccc(-c2ccncc2)cc1` (centres unmarked) [Example 384, 6-oxo-2-phenyl-N-[1-(4-pyridin-4-ylphenyl)ethyl]-1,6-dihydropyrimidine-4-carboxamide], under setting [1], the inhibitory constant (Ki) turned out to be 319 nM. For `COc1cc(C(C)NC(=O)c2cc(=O)[nH]c(C)n2)ccc1C(F)(F)F` (centres unmarked) [Example 27, N-{1-[3-methoxy-4-(trifluoromethyl)phenyl]ethyl}-2-methyl-6-oxo-1,6-dihydropyrimidine-4-carboxamide], the Ki under setting [2] stood at 1160 nM. In the case of `CCC(NC(=O)c1cc(=O)[nH]c(C)n1)c1ccc(C(C)(C)C)cc1` (centres unmarked) [Example 12, N-[1-(4-tert-butylphenyl)propyl]-2-methyl-6-oxo-1,6-dihydropyrimidine-4-carboxamide], under setting [2], the Ki was 102 nM. Consider `COC(=O)c1ccc(C(C)(C)NC(=O)c2cc(=O)[nH]c(-c3ccccc3)n2)cc1` [Example 160, methyl 4-(1-methyl-1-{[(6-oxo-2-phenyl-1,6-dihydropyrimidin-4-yl)carbonyl]amino}ethyl)benzoate], for which the Ki under setting [2] stood at 826 nM. The same measure, in the same setting: the result for `O=C(NCc1ccc(C(F)(F)F)cc1Cl)c1cc(=O)[nH]c(C2CC2)n1` [Example 229, N-[2-chloro-4-(trifluoromethyl)benzyl]-2-cyclopropyl-6-oxo-1,6-dihydropyrimidine-4-carboxamide] reads 864 nM. For the compound `CC(NC(=O)c1cc(=O)[nH]c(-c2ccccc2)n1)c1cccc(-c2ccccc2)c1` (centres unmarked) [Example 410, N-(1-biphenyl-3-ylethyl)-6-oxo-2-phenyl-1,6-dihydropyrimidine-4-carboxamide], the Ki under setting [1] was 1960 nM. With `COc1cc(C(F)(F)F)ccc1[C@@H](C)NC(=O)c1cc(=O)[nH]c(-c2ccccc2)n1` [Example 188, N-{(1R)-1-[2-methoxy-4-(trifluoromethyl)phenyl]ethyl}-6-oxo-2-phenyl-1,6-dihydropyrimidine-4-carboxamide], the Ki under setting [2] was 1010 nM.

Regarding `COc1ccc(C(C)(C)c2nc(C(=O)N[C@@H](c3ccc(SC(F)(F)F)cc3)C(C)(C)C)cc(=O)[nH]2)cc1` [Example 488, N-[(1R)-2,2-dimethyl-1-{4-[(trifluoromethyl)sulfanyl]phenyl}propyl]-2-[1-(4-methoxyphenyl)-1-methylethyl]-6-oxo-1,6-dihydropyrimidine-4-carboxamide], under setting [1], the Ki was 116 nM. On to `CC(NC(=O)c1cc(=O)[nH]c(C2CC2)n1)c1ccccc1C(F)(F)F` (centres unmarked) [Example 220, 2-cyclopropyl-6-oxo-N-{1-[2-(trifluoromethyl)phenyl]ethyl}-1,6-dihydropyrimidine-4-carboxamide], for which the Ki under setting [2] is 10700 nM.

As to `COc1cc(-c2ccc([C@@H](C)NC(=O)c3cc(=O)[nH]c(C)n3)cc2)ccn1` [Example 317, (R)—N-(1-(4-(2-methoxypyridin-4-yl)phenyl)ethyl)-2-methyl-6-oxo-1,6-dihydropyrimidine-4-carboxamide], the Ki under setting [2] is 1810 nM. As to `COc1ccc([C@H](C)NC(=O)c2cc(=O)[nH]c(-c3ccccc3)n2)cc1` [Example 357, N-[(1S)-1-(4-methoxyphenyl)ethyl]-6-oxo-2-phenyl-1,6-dihydropyrimidine-4-carboxamide], the inhibitory constant (Ki) under setting [1] is around 11300 nM. The same measure, in the same setting: the result for `C[C@@H](NC(=O)c1cc(=O)[nH]c(-c2ccccc2)n1)c1ccc([N+](=O)[O-])cc1` [Example 459, N-[(1R)-1-(4-nitrophenyl)ethyl]-6-oxo-2-phenyl-1,6-dihydropyrimidine-4-carboxamide] reads 224 nM. For the compound `CC(NC(=O)c1cc(=O)[nH]c(C2CC2)n1)c1ccc(C(F)(F)F)cn1` (centres unmarked) [Example 238, 2-cyclopropyl-6-oxo-N-{1-[5-(trifluoromethyl)pyridin-2-yl]ethyl}-1,6-dihydropyrimidine-4-carboxamide], the Ki under setting [2] is 683 nM.

As for `C[C@H](NC(=O)c1cc(=O)[nH]c(-c2ccccc2)n1)c1ccc([N+](=O)[O-])cc1` [Example 458, N-[(1S)-1-(4-nitrophenyl)ethyl]-6-oxo-2-phenyl-1,6-dihydropyrimidine-4-carboxamide], the Ki under setting [1] stood at 8130 nM.

As to `Cc1cc(C(F)(F)F)ccc1C(C)NC(=O)c1cc(=O)[nH]c(C2CC2)n1` (centres unmarked) [Example 208], the inhibition constant (Ki) under setting [2] was determined as 291 nM. For the compound `CC1(C(NC(=O)c2cc(=O)[nH]c(-c3ccccc3)n2)c2ccc(SC(F)(F)F)c(F)c2)CC1` (single isomer, unassigned) [Example 706, (S)- or (R)-N-((3-fluoro-4-((trifluoromethyl)thio)phenyl)(1-methylcyclopropyl)methyl)-6-oxo-2-phenyl-1,6-dihydropyrimidine-4-carboxamide], the Ki under setting [1] was above 2970 nM.

Take `COCc1nc(C(=O)NC(C)(C)c2ccc(C(F)(F)F)cc2)cc(=O)[nH]1` [Example 124, 2-(methoxymethyl)-N-{1-methyl-1-[4-(trifluoromethyl)phenyl]ethyl}-6-oxo-1,6-dihydropyrimidine-4-carboxamide]: under setting [2], the Ki stood at 283 nM. As for `COc1cc(C(C)NC(=O)c2cc(=O)[nH]c(-c3ncccn3)n2)ccc1C(F)(F)F` (centres unmarked) [Example 104, N-{1-[3-methoxy-4-(trifluoromethyl)phenyl]ethyl}-6-oxo-1,6-dihydro-2,2′-bipyrimidine-4-carboxamide], the Ki under setting [2] came to 524 nM.

In the case of `COC(=O)C(NC(=O)c1cc(=O)[nH]c(-c2ccccc2)n1)c1ccc(C(F)(F)F)cc1` (centres unmarked) [Example 406, methyl {[(6-oxo-2-phenyl-1,6-dihydropyrimidin-4-yl)carbonyl]amino}[4-(trifluoromethyl)phenyl]acetate], the Ki under setting [1] worked out at 226 nM. Consider `Cc1cc(C(F)(F)F)ccc1CNC(=O)c1cc(=O)[nH]c(C2CC2)n1` [Example 228, 2-cyclopropyl-N-[2-methyl-4-(trifluoromethyl)benzyl]-6-oxo-1,6-dihydropyrimidine-4-carboxamide], for which, under setting [2], the Ki turned out to be 1430 nM.

Take `Cc1nc(C(=O)N[C@H](C)c2cccc(C(F)(F)F)c2)cc(=O)[nH]1` [Example 271, 2-methyl-6-oxo-N-{(1R)-1-[3-(trifluoromethyl)phenyl]ethyl}-1,6-dihydropyrimidine-4-carboxamide]: the Ki under setting [2] came to 2960 nM.

As for `CC(NC(=O)c1cc(=O)[nH]c(-c2ccccc2)n1)c1ccccc1C(F)(F)F` (centres unmarked) [Example 169, 6-oxo-2-phenyl-N-{1-[2-(trifluoromethyl)phenyl]ethyl}-1,6-dihydropyrimidine-4-carboxamide], the inhibition constant (Ki) under setting [2] is 3420 nM.

For the origin of these results see patent US9815796B2 (Merck Sharp & Dohme Corp., priority 2013, dated 2017).
